# ChEMBL document CHEMBL3588836, “Development of Quinoline-2,4(1H,3H)-diones as Potent and Selective Ligands of the Cannabinoid Type 2 Receptor” (J Med Chem, 2015)
# Key:
# Cannabinoid receptor 1 [1] = target: T1, Cannabinoid receptor 1 (Homo sapiens, UniProt P21554); assay: Agonist activity at CB1R (unknown origin) CHO cells stably expressing Galpha16 assessed as increase in intracellular calcium level by microplate reader based assay; format: functional, cell-based
# Cannabinoid receptor 2 [2] = target: T2, Cannabinoid receptor 2 (Homo sapiens, UniProt P34972); assay: Agonist activity at CB2R (unknown origin) CHO cells stably expressing Galpha16 assessed as increase in intracellular calcium level by microplate reader based assay relative to CP55940; format: functional, cell-based
# Cannabinoid receptor 2 [3] = target: T2, Cannabinoid receptor 2; assay: Agonist activity at CB2R (unknown origin) CHO cells stably expressing Galpha16 assessed as increase in intracellular calcium level by microplate reader based assay; format: functional, cell-based
# CHO [4] = assay: Selectivity index, ratio of EC50 for CB1R (unknown origin) CHO cells stably expressing Galpha16 to EC50 for CB2R (unknown origin) CHO cells stably expressing Galpha16; format: cell-based; settings: Homo sapiens
# Cannabinoid receptor 1 [5] = target: T1, Cannabinoid receptor 1; format: functional, cell-based, CHO
# Cannabinoid receptor 2 [6] = target: T2, Cannabinoid receptor 2; assay: Antagonist activity against CB2R (unknown origin) CHO cells stably expressing Galpha16 assessed as inhibition of CP55940-induced increase in intracellular calcium level pre-treated 10 mins before CP55940 stimulation by microplate reader based assay; format: functional, cell-based
# CHO [7] = assay: Selectivity index, ratio of IC50 for CB1R (unknown origin) CHO cells stably expressing Galpha16 to IC50 for CB2R (unknown origin) CHO cells stably expressing Galpha16; format: cell-based; settings: Homo sapiens
# Cannabinoid receptor 2 [8] = target: T2, Cannabinoid receptor 2; assay: Antagonist activity against CB2R (unknown origin) CHO cells stably expressing Galpha16 assessed as inhibition of CP55940-induced increase in intracellular calcium level pre-treated 10 mins before CP55940 stimulation by microplate reader based assay relative to […]; format: functional, cell-based
# T2 sequence (P34972 whole entry): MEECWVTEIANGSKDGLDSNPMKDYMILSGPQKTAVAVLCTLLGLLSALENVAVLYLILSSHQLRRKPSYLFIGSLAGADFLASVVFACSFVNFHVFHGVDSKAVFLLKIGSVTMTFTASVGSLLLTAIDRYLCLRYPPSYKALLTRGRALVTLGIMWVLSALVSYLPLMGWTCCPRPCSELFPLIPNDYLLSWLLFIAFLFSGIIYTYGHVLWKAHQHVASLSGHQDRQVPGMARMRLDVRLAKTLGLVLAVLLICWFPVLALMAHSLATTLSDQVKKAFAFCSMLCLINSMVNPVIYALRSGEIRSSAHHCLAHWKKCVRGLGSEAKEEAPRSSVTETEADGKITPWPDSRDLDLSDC
# T1 sequence (P21554 whole entry): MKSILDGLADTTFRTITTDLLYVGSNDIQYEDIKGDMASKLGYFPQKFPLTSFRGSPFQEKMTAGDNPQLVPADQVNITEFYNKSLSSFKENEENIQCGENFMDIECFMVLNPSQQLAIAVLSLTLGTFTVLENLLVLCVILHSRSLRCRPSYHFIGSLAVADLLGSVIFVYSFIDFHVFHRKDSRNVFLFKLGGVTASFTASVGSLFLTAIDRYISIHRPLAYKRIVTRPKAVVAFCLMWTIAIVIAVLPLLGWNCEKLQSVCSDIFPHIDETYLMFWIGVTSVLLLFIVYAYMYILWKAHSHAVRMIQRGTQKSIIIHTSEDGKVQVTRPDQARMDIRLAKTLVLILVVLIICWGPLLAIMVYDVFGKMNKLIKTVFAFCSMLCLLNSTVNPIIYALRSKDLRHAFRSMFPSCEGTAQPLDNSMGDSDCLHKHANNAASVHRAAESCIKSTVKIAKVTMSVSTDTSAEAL
SMILES,EC50 (Cannabinoid receptor 1 [1]) [nM],Emax (Cannabinoid receptor 2 [2]) [%],EC50 (Cannabinoid receptor 2 [3]; read-out: EC50) [nM],Ratio EC50 (CHO [4]),IC50 (Cannabinoid receptor 1 [5]) [nM],IC50 (Cannabinoid receptor 2 [6]) [nM],Ratio IC50 (CHO [7]),Emax (Cannabinoid receptor 2 [8]) [%],EC50 (Cannabinoid receptor 2 [3]; read-out: pEC50 (converted)) [nM]
CCCCN1C(=O)/C(=C/NCC2CC2)C(=O)c2cccc(C)c21,> 10000,43.4,127,> 78.7,–,–,–,–,–
CCCCCN1C(=O)/C(=C/NC2CCCCC2)C(=O)c2cc(C(F)(F)F)ccc21,–,–,–,–,> 10000,> 10000,–,–,–
CCCN1C(=O)/C(=C/NC2CCCCC2)C(=O)c2cccc(C)c21,> 10000,68.2,497,> 20.1,–,–,–,–,–
CCCCCN1C(=O)/C(=C/NC2CCCCC2)C(=O)c2ccc(C)cc21,–,–,–,–,> 10000,9.03,> 1110,96.3,–
CCN1C(=O)/C(=C/NC2CCCCC2)C(=O)c2cccc(C)c21,> 10000,95,17900,> 0.559,–,–,–,–,–
CCCCN1C(=O)/C(=C/Nc2ccccn2)C(=O)c2cccc(C)c21,> 10000,47.2,2390,> 4.18,–,–,–,–,–
CCCCCN1C(=O)/C(=C/NC2CCCCC2)C(=O)c2ccccc21,> 10000,101,472,> 21.2,–,–,–,–,–
CCCCN1C(=O)/C(=C/NCC(C)C)C(=O)c2cccc(C)c21,> 10000,99,44.3,> 226,–,–,–,–,44
CCCCN1C(=O)/C(=C/NC(C)(C)C)C(=O)c2cccc(C)c21,> 10000,135,20,> 500,–,–,–,–,–
CCCCCN1C(=O)/C(=C/NC2CCCCC2)C(=O)c2ccc(OC)cc21,–,–,–,–,> 10000,194,> 51.5,97.4,–
C=CCCN1C(=O)/C(=C/NC2CCCCC2)C(=O)c2cccc(C)c21,> 10000,135,749,> 13.4,–,–,–,–,–
CCCCCN1C(=O)/C(=C/NC23CC4CC(CC(C4)C2)C3)C(=O)c2cc(OC)cc(C)c21,–,–,–,–,> 10000,45.3,> 221,102,–
CCCCN1C(=O)/C(=C/NN2CCOCC2)C(=O)c2cccc(C)c21,> 10000,78.7,477,> 21,–,–,–,–,–
CCCCN1C(=O)/C(=C/NC2CCCCC2)C(=O)c2ccccc21,> 10000,185,1580,> 6.33,–,–,–,–,–
O=C(NCC1CCOCC1)c1cnc(Nc2ccc(Cl)cc2Cl)nc1C(F)(F)F [GW842166X],> 10000,91.6,437,> 22.9,–,–,–,–,–
CCCCN1C(=O)/C(=C/NC2CCCCC2)C(=O)c2cccc(OC)c21,> 10000,86.1,1420,> 7.04,–,–,–,–,–
CCCCCN1C(=O)/C(=C/NC2CCCCC2)C(=O)c2cc(Br)ccc21,–,–,–,–,> 10000,1680,> 5.95,96.8,–
CCCCCN1C(=O)/C(=C/NC2CCCCC2)C(=O)c2cc(Cl)cc(C)c21,–,–,–,–,> 10000,1480,> 6.76,95,–
CCCCN1C(=O)/C(=C/NCc2ccc(F)cc2)C(=O)c2cccc(C)c21,> 10000,–,> 10000,–,–,–,–,–,–
CCCCN1C(=O)/C(=C/NC2CCCCC2)C(=O)c2c(C)cccc21,> 10000,104,341,> 29.3,–,–,–,–,–

SMILES,EC50 (Cannabinoid receptor 1 [1]) [nM],Emax (Cannabinoid receptor 2 [2]) [%],EC50 (Cannabinoid receptor 2 [3]; read-out: EC50) [nM],Ratio EC50 (CHO [4]),IC50 (Cannabinoid receptor 1 [5]) [nM],IC50 (Cannabinoid receptor 2 [6]) [nM],Ratio IC50 (CHO [7]),Emax (Cannabinoid receptor 2 [8]) [%],EC50 (Cannabinoid receptor 2 [3]; read-out: pEC50 (converted)) [nM]
CCCCN1C(=O)/C(=C/NC2CCCCC2)C(=O)c2cccc(CC)c21,> 10000,86.9,797,> 12.5,–,–,–,–,800
CCCCN1C(=O)/C(=C/NN2CCCCC2)C(=O)c2cccc(C)c21,> 10000,58,993,> 10.1,–,–,–,–,–
CCCCCN1C(=O)/C(=C/NC2CCCCC2)C(=O)c2cc(OC)cc(C)c21,–,–,–,–,> 10000,93.3,> 107,106,–
CCCCN1C(=O)/C(=C/NC(C)(C)CO)C(=O)c2cccc(C)c21,557,127,41.3,13.5,–,–,–,–,41
CCCCCN1C(=O)/C(=C/NC2CCCCC2)C(=O)c2cc(OC)cc(OC)c21,–,–,–,–,> 10000,> 10000,–,–,–
CCCCN1C(=O)/C(=C/NC2CCCCC2)C(=O)c2cccc(Cl)c21,> 10000,–,> 10000,–,–,–,–,–,–
CCCCCN1C(=O)/C(=C/NC23CC4CC(CC(C4)C2)C3)C(=O)c2cc(Cl)ccc21,–,–,–,–,> 10000,957,> 10.4,100,–
CCCCN1C(=O)/C(=C/NC2CC2)C(=O)c2cccc(C)c21,> 10000,81.8,503,> 19.9,–,–,–,–,–
CCCCCN1C(=O)/C(=C/NC2CCCCC2)C(=O)c2c(OC)cccc21,> 10000,–,> 10000,–,–,–,–,–,–
CCCCCCN1C(=O)/C(=C/NC2CCCCC2)C(=O)c2cc(OC)ccc21,–,–,–,–,> 10000,> 10000,–,–,–
CCCCN1C(=O)/C(=C/NC2CCCCC2)C(=O)c2cc(OC)ccc21,–,–,–,–,> 10000,4190,> 2.39,99.7,–
CCCCCN1C(=O)/C(=C/NC2CCCCC2)C(=O)c2cc(OC)ccc21,–,–,–,–,> 10000,1650,> 6.06,98.3,–
CCCCCN1C(=O)/C(=C/NC2CCCCC2)C(=O)c2cccc(C)c21,> 10000,70.3,320,> 31.3,–,–,–,–,–
CCCCCN1C(=O)/C(=C/NC2CCCCC2)C(=O)c2ccc(Cl)cc21,–,–,–,–,> 10000,> 10000,–,–,–
CCCCN1C(=O)/C(=C/NC2CCCC2)C(=O)c2cccc(C)c21,> 10000,129,58,> 172,–,–,–,–,–
CCCCN/C=C1\C(=O)c2cccc(C)c2N(CCCC)C1=O,> 10000,64.7,90.7,> 110,–,–,–,–,91
CCCCCN1C(=O)/C(=C/NC2CCCCC2)C(=O)c2cc(OC(F)(F)F)ccc21,–,–,–,–,> 10000,> 10000,–,–,–
CCCCN1C(=O)/C(=C/NC23CC4CC(CC(C4)C2)C3)C(=O)c2cccc(C)c21,> 10000,137,317,> 31.5,–,–,–,–,–
CCCCN1C(=O)/C(=C/NC(C)(C)CC)C(=O)c2cccc(C)c21,2020,158,75.3,26.8,–,–,–,–,75
CCCN1C(=O)/C(=C/NC(C)(C)C)C(=O)c2cccc(C)c21,> 10000,126,36.3,> 275,–,–,–,–,–

SMILES,EC50 (Cannabinoid receptor 1 [1]) [nM],Emax (Cannabinoid receptor 2 [2]) [%],EC50 (Cannabinoid receptor 2 [3]; read-out: EC50) [nM],Ratio EC50 (CHO [4]),IC50 (Cannabinoid receptor 1 [5]) [nM],IC50 (Cannabinoid receptor 2 [6]) [nM],Ratio IC50 (CHO [7]),Emax (Cannabinoid receptor 2 [8]) [%],EC50 (Cannabinoid receptor 2 [3]; read-out: pEC50 (converted)) [nM]
CCCCCN1C(=O)/C(=C/NC23CC4CC(CC(C4)C2)C3)C(=O)c2cc(OC)ccc21,–,–,–,–,> 10000,81.7,> 122,106,–
CCCCCN1C(=O)/C(=C/NC2CCCCC2)C(=O)c2cccc(CC)c21,> 10000,–,> 10000,–,–,–,–,–,–
CCCCN1C(=O)/C(=C/NC(C)C(C)C)C(=O)c2cccc(C)c21 (stereo not given),> 10000,120,82.7,> 121,–,–,–,–,83
CCCCCN1C(=O)/C(=C/NC2CCCCC2)C(=O)c2cc(C)ccc21,–,–,–,–,> 10000,> 10000,–,–,–
CCCCN1C(=O)/C(=C/NCc2cccnc2)C(=O)c2cccc(C)c21,> 10000,–,> 10000,–,–,–,–,–,–
Cc1c(C(=O)NN2CCCCC2)nn(-c2ccc(Cl)cc2Cl)c1-c1ccc(Cl)cc1,–,–,–,–,–,–,–,100,–
C=CCCN1C(=O)/C(=C/NC(C)(C)C)C(=O)c2cccc(C)c21,> 10000,92.6,75.3,> 133,–,–,–,–,–
CCCCN1C(=O)/C(=C/NCC2CCC2)C(=O)c2cccc(C)c21,> 10000,87.7,220,> 45.5,–,–,–,–,–
CCCCOc1c(OC)ccc2cc(C(=O)NCCc3ccc(N)cc3)c(=O)[nH]c12,–,–,–,–,> 10000,–,> 18.3,102,–
CCCCN1C(=O)/C(=C/NC(CC)CC)C(=O)c2cccc(C)c21,> 10000,137,113,> 88.5,–,–,–,–,112
CCCCN1C(=O)/C(=C/N[C@H]2CC[C@H](O)CC2)C(=O)c2cccc(C)c21,> 10000,–,> 10000,–,–,–,–,–,–
CCCCCN1C(=O)/C(=C/NC2CCCCC2)C(=O)c2cc(C(C)(C)C)ccc21,–,–,–,–,> 10000,> 10000,–,–,–
CCCCN1C(=O)/C(=C/NCCC)C(=O)c2cccc(C)c21,> 10000,–,> 10000,–,–,–,–,–,–
CCCCCN1C(=O)/C(=C/NC2CCCCC2)C(=O)c2cccc(OC)c21,> 10000,–,> 10000,–,–,–,–,–,–
Cc1cccc2c1N(CC1CC1)C(=O)/C(=C/NC(C)(C)C)C2=O,> 10000,140,104,> 96.2,–,–,–,–,–
CCCCN1C(=O)/C(=C/NC(C)C)C(=O)c2cccc(C)c21,> 10000,–,> 10000,–,–,–,–,–,–
Cc1cccc2c1N(CC1CC1)C(=O)/C(=C/NC1CCCCC1)C2=O,> 10000,111,670,> 14.9,–,–,–,–,–
CCCCN1C(=O)/C(=C/NC(C)CCC)C(=O)c2cccc(C)c21 (stereo not given),> 10000,53.6,116,> 86.2,–,–,–,–,–
CCCCN1C(=O)/C(=C/Nc2ccc(F)cc2)C(=O)c2cccc(C)c21,> 10000,–,> 10000,–,–,–,–,–,–
